Experimental data as given in patent US20210379151A1 (ACADEMIA SINICA, priority 2018, published 2021).
Counter-ions that a name gives are not always drawn. Like-named read-outs stand apart in the source and are kept apart here.

Assays:
BBB [1] = experiment: Doxorubicin biodistribution (HPLC)
Description: Organs were removed, dried, weighed, cut into multiple smaller pieces (approximately 100 mg tissue or 100 μl plasma) then thoroughly homogenised with 1 ml lysis buffer (0.25 M sucrose, 5 mM Tris-HCl, 1 mM MgSO4, 1 mM CaCl2, pH 6.7). 200 μl homogenate was then mixed with 1 ml acidified alcohol (70% ethanol, 0.3 N HCl), left overnight at −20° C., then centrifuged at 10,000×g for 30 minutes at 4° C. Supernatant was taken for HPLC analysis. Separation was via a Waters e2695 separation module, mobile phase 35% 10 mM KH2PO4, 65% methanol, flow rate 1 ml/min in an X-Bridge 5 μm column at 40° C. Detection used a Waters e2475 module (ex 480, em 600 nm).
Aryal et al., J. Control. Release, 204, 60-69 (2015); Kovacs et al., 2014; and Wohlfart et al., J Control Release, 154 (1), 103-107 (2011). […] The drug was allowed to circulate for two hours before the animal was perfused with saline. Doxorubicin was then extracted from the vital organs and quantified by HPLC (FIG. 8c). […] FIG. 2b.

BBB [2] = experiment: HPLC quantification of TMZ in brain; format: in vivo; conditions: mice
Description: Approximately 100 mg tissue was homogenised in acidified ammonium acetate (200 μl, 10 mM pH 3.5), zinc sulphate (200 μl, 100 mM) and methanol (400 μl), followed by centrifugation at 10,000×g for 30 minutes at 4° C. Supernatant was taken for HPLC analysis. Separation was carried out with a Water e2695 separation module using 80:20 ratio of acetic acid (0.1% v/v) to methanol at a flow rate of 0.8 ml/min in an Atlantis T3 3 μm HPLC column at 35° C. Detection was performed using a Waters 2489 UV/vis detector at 316 nm. Theophylline was used as an internal standard, measured at 275 nm, and results calculated as the peak ratio of TMZ to theophylline.

BBB [3] = conditions: mice
Description: For mice, a Pharmascan 7T 16-cm bore horizontal system was operated by a technician. […] Pre-contrast T1-weighted spin echo images were taken (repetition time (TR)=400 ms, echo time (TE)=10.8 ms, field of view (FOV)=2×2 cm, number of excitations (NEX)=8, slice thickness 0.8 mm). […] Post-contrast T1-weighted images were acquired one minute after contrast agent injection. The SNR was calculated by dividing the signal of a ROI (mean pixel intensity) by the standard deviation of the background noise. All image acquisition, SNR measurement and tumour volume measurement was performed by two MRI operating technicians, who were blinded to the study groups.

BBB [4] = conditions: mice; remark: listed apart in the source
Description: After 30 minutes circulation, 50 ml phosphate buffered saline (PBS) was perfused through the abdominal aorta. Organs were removed, cut into multiple smaller pieces, rinsed, dried, weighed, homogenised in 500 μl formamide, heated at 60° C. overnight and centrifuged at 21,000×g for 15 minutes. Supernatant absorbance was measured at 620 nm with background correction at 740 nm, and unknowns quantified by standard curve. […] Radu et al., J. Vis. Exp., No. 73, e50062 (2013).
Concentrations from multiple pieces of the same organ were averaged. For imaging of Evans blue extravasation, a method from del Valle and colleagues was adapted. del Valle et al., J. Neurosci. Methods, 174 (1), 42-49 (2008). Mice were intracardially perfused with 50 ml PBS followed by 50 ml of Evans blue (1% w/v) in paraformaldehyde (4% w/v). Cryolesion injury, to induce a local area of BBB damage, was used as a positive control. The brain was embedded in optimal cutting temperature compound (OCT) and cryosectioned into 20 μm thick sections for analysis.

[5] = tested on: DBTRG-05MG human glioblastoma cell line; experiment: MTT assay cell viability; format: cell-based; conditions: VEGF up to 100 ng/ml
Description: DBTRG-05MG human glioblastoma cells were used in this study. DBTRG-05MG cells were routinely cultured at 37° C. in RPMI 1640 media supplemented with 10% FBS, 1 mM sodium pyruvate and 1% penicillin/streptomycin. MTT assay was carried out in accordance with the manufacturer protocol. For GBM tumour generation, 300,000 live DBTRG-05MG cells, suspended in 6 μl sterile saline, were administered to 6 week old BALB/c NU mice by stereotactic injection, […] The location was 2 mm posterior to the bregma, 1.5 mm laterally in the right cerebral hemisphere, and 2.5 mm deep from the dura, thus delivering the cells into the thalamus. Baumann et al., J. Vis. Exp., No. 67, 3-6 (2012). Bone wax was applied to the skull and the skin was closed with sutures. The success rate of xenograft tumour formation was approximately 90%. Animal deaths were recorded when the animal succumbed from tumour progression, or upon sacrifice if they met pre-determined criteria including severe cachexia (loss of >25% starting body weight), inability to feed, and lack of response to toe-pinch stimulus. Gholamin et al., Cureus, 4, 1-14 (2013).

BBB [6] = conditions: pigs, VEGF vs control
From the text: One minute later, a series of three post-contrast images were taken at the same settings. The two pre-contrast images were averaged, and the post contrast image with the highest SNR from each animal was selected for analysis.

[7] = tested on: key genes related to BBB integrity
Description: Samples of mouse cerebral cortex weighing approximately 50 mg were homogenised in Trizol, and total RNA extracted via the manufacturer's protocol, then quantified by Nanodrop. Samples were reverse transcribed to cDNA using a SuperScript III Reverse-Transcriptase Kit (Life Technology). OmicsGreen qPCR SYBR Green master mix (Omics Bio, Taiwan) was used to monitor amplification using an Applied Biosystems 7500 Real-Time PCR system. GAPDH was used an internal control.

brain blood vessels = tested on: brain blood vessels
Description: Mice were anaesthetised and perfused with PBS followed by 100 ml 4% PFA in […] phosphate buffer, pH 7.4. The brain was removed and post-fixed in 4% PFA (overnight, 4° C.) and washed in PBS. Coronal brain sections (100 μm thick) were cut on the same day with a cryomicrotome and processed free floating. Sections were immersed in 4% PFA, 2.5% glutaraldehye in PBS (overnight, 4 ° C.), washed with PBS for 5 minutes for 3 times. The specimens were immersed in 1% osmium tetroxide for 45 minutes, dehydrated and embedded with Spurr's low viscosity resin. The sample was then trimmed and sectioned using a Leica EM UC6 ultramicrotome. The ultrathin sections were then double stained with uranyl acetate and lead citrate. Images were acquired using Jeol JEM 1200EX TEM with an acceleration voltage of 80 KV.

claudin 5 = tested on: claudin 5
From the text: (§1) Brain tumours from mice which died between day 60 to day 70 were selected for immunofluorescence staining. […] Primary antibodies and dilutions used were anti-Ki67 (1:500 GeneTex GTX16667), Isolectin IB4-AlexaFluor 647, anti-GFAP (1:500 AbCam ab68428), anti-Iba1 (1:1000 Wako 019-19741), anti-p-glycoprotein (1:100 AbCam ab170904), anti-pdgfrβ (1:100, ab32570 Abcam), anti-claudin-5 (1:50 34-1600 Thermo Fisher Scientific), anti-CD31 (1:100 550274, BD Pharmingen). Samples were fixed in 4% w/v paraformaldehyde (PFA) pH 6.8 overnight, embedded in paraffin and sectioned. Slides were de-waxed with xylene, rehydrated through graded alcohols to water, then subjected to antigen retrieval, permeabilisation and blocking in accordance with the manufacturers' instructions. Primary antibody was applied overnight at 4° C. diluted in blocking buffer, apart from isolectin, which was applied for one hour at room temperature. Slides were washed 3× with PBS, before the second primary antibody was added and left overnight at 4° C. Secondary antibodies used were goat anti-rabbit IgG-AlexaFluor 568 (Invitrogen A-11011) and goat anti-rat IgG-AlexaFluor 488 (Invitrogen A-11006), applied for one hour at room temperature. At least three separate sections were examined, and at least three images were captured per section. For frozen sections, samples were perfusion fixed then submerged in 4% paraformaldehyde (PFA), cryoprotected in 30% w/v sucrose solution, then frozen in OCT, sectioned and stained as above, continuing on from blocking. H&E staining (Mayers) followed standard lab protocols. Images were captured using a Zeiss AxioScop microscope with AxioFluor objective lenses and AxioVision software, or a Model-Zeiss LSM 700 Stage confocal microscope.
(§2) GraphPad Prism 7.0b (Mac) was used for all statistical analysis and graph generation. For before-after analyses, paired t-test was used, and for grouped analyses one or two-way ANOVA (analysis of variance) with Tukey's post-test to correct for multiple comparisons were used. For tumour survival analyses, deaths were recorded and used to generate Kaplan-Meier survival curves which were compared using Mantel-Cox log rank tests. IVIS images of tumour luminescence and nanoparticle fluorescence were quantified using Living Image 4.0 software for Mac. MRI DICOM images were sorted in MicroDicom (Windows) and SNR calculation was performed in FIJI/ImageJ (Mac) using the measure tool. For heatmap generation, voxels within the animal were compared to the average of a 64*64 voxel region in the corner of the frame and the difference was scaled from 0 to 100, using Python. Adjustments to immunofluorescence image brightness and contrast were made to improve visual clarity and were applied equally to all images within a series. For colocalisation analysis, the raw images were analysed in Zeiss ZEN software. The threshold for no colocalisation was established using the DAPI/CD31 channels, and that threshold was then applied to the other channels. Pericyte alignment analysis was carried out using the freehand line selection tool in ImageJ. Figures were assembled in Affinity Designer (Mac).

[8] = tested on: pericyte coverage of blood vessels
From the text: as §1, §2

P-glycoprotein = conditions: all time points after VEGF
From the text: as §1, with “For frozen sections, samples were perfusion fixed then submerged in 4% paraformaldehyde (PFA), cryoprotected in 30% w/v sucrose solution, then frozen in OCT, sectioned and stained as above, continuing on from blocking. H&E staining (Mayers) followed standard lab protocols. Images were captured using a Zeiss AxioScop microscope with AxioFluor objective lenses and AxioVision software, or a Model-Zeiss LSM 700 Stage confocal microscope.” left out

astrocytes = conditions: between treatment groups
From the text: as §1, with “For frozen sections, samples were perfusion fixed then submerged in 4% paraformaldehyde (PFA), cryoprotected in 30% w/v sucrose solution, then frozen in OCT, sectioned and stained as above, continuing on from blocking. H&E staining (Mayers) followed standard lab protocols. Images were captured using a Zeiss AxioScop microscope with AxioFluor objective lenses and AxioVision software, or a Model-Zeiss LSM 700 Stage confocal microscope.” left out

Claudin-5 = conditions: after VEGF administration
BBB [9] = conditions: antibody 45 minutes following VEGF; preliminary evidence
Description: The antibody was allowed to circulate for 2 hours, then mice were perfused with 50 mL saline followed by 50 mL paraformaldehyde (4% w/v). The brain was removed, kept in 4% PFA overnight, then processed for frozen sections. As a positive control, 5 μl of antibody was injected directly into the brain prior to perfusion. Frozen sections were then stained using secondary antibody conjugated to Alexa 488. As a negative control, brain sections from an untreated animal were used. As a second positive control, a brain section from an untreated animal was stained with anti-nrCAM using conventional lab techniques (1hr room temperature). All images, aside from the stained positive control, were taken at fixed exposure lengths. The intensity of the green channel was quantified in ImageJ.

[10] = mouse brain 45 minutes or 4 hours following VEGF
[11] = GBM tumour region, VEGF pre-treatment

COc1cccc2c1C(=O)c1c(O)c3c(c(O)c1C2=O)C[C@@](O)(C(=O)CO)C[C@@H]3O[C@H]1C[C@H](N)[C@H](O)[C@H](C)O1 [Doxorubicin, Doxorubicin Hydrochloride]
doxorubicin concentration in brain after VEGF pre-treatment vs. control (BBB [1]; 8 mg/kg 45 minutes after VEGF, mice): statistically significant increase
systemic Doxorubicin entering the brain (BBB [1]; healthy control mice, 8 mg/kg, two hours circulation): less than 0.1%

Cn1nnc2c(C(N)=O)ncn2c1=O [TMZ, Temozolomide]
brain concentration of TMZ after VEGF pre-treatment (BBB [2]; TMZ 20 mg/kg): did not further enhance
TMZ concentration in the brain after VEGF pre-treatment (BBB [2]; VEGF or 10-fold higher VEGF): does not significantly increase

VEGF
increase in average SNR of the cortex, post- vs pre-contrast (BBB [3]; Gd given 45 minutes following VEGF): 16%
SNR enhancement of the cortex, post- vs pre-contrast (BBB [3]; Gd given 4 hours after VEGF): less than 5%
signal enhancement of area surrounding central cerebral sinus (BBB [3]; VEGF vs control groups): no significant difference between the groups
Evans blue uptake in kidney (BBB [4]; 45 minutes after VEGF): increase
concentration of Evans blue in brain tissue compared to control-treated animals (BBB [4]; Evans blue 45 minutes after VEGF, 30 minutes circulation): 4.85 fold
concentration of Evans blue in brain tissue compared to control (BBB [4]; Evans blue 4 hours following VEGF): no increase was detected
effect on DBTRG-05MG cell viability [5]: did not affect
SNR enhancement of the central cerebral sinus (BBB [6]): no significant difference
p-glycoprotein gene expression (Abcb1a) ([7]; following VEGF at the given dose): No change
expression of BBB transporters Slc2a1 (GLUT-1) and Slc6a8 (CRT) [7, 10]: increase
expression of tight junction components Tjp2 (ZO-2) and Cldn5 (Claudin 5) [7, 10]: decrease
morphology of brain blood vessels (TEM) (brain blood vessels; 15 minutes following VEGF injection): slightly dilated and lacking adjacent pericytes
morphology of brain blood vessels (TEM) (brain blood vessels; 45 minutes following VEGF): no longer dilated
morphology of brain blood vessels (TEM) (brain blood vessels; four hours following VEGF): both vessels and pericytes appeared normal
colocalisation of claudin 5 and CD31 (claudin 5; [11]): 48.5%
colocalisation of claudin 5 and CD31 (claudin 5; healthy brain, 45 minutes following VEGF): 55.8%
colocalisation of claudin 5 and CD31 (claudin 5; healthy brain, 4 hours following VEGF): 42.7%
pericyte coverage of blood vessels [8, 11]: 28.9%
pericyte coverage of blood vessels ([8]; healthy brain, 15 minutes after VEGF): 57.6%
pericyte coverage of blood vessels ([8]; healthy brain, 45 minutes after VEGF): 86.2%
pericyte coverage of blood vessels ([8]; healthy brain, 4 hours after VEGF): 83.0%
P-glycoprotein staining (P-glycoprotein): appeared uniformly on the membrane of blood vessels at all time points
astrocyte morphology (GFAP) (astrocytes): no obvious change
Claudin-5 protein expression (Western blot) (Claudin-5): trend towards reduced protein expression
passage of systemically injected IgG antibody into the brain (BBB [9]): allows the passage of systemically injected IgG antibody into the brain
